Source: ChEMBL document CHEMBL3421569, “Stemistry: the control of stem cells in situ using chemistry” (2015)

Tests used:
[1] = Induction of human ESC differentiation assessed as increase in microphthalmia-associated transcription factor expression measured over 8 weeks relative to total pigmented area; assay type: functional, Embryonic stem cell
[2] = Induction of human ESC differentiation assessed as appearance of pigmented area measured over 8 weeks relative to control; assay type: functional, Embryonic stem cell

Structure (SMILES): NC(=O)c1cccnc1 [NIACINAMIDE]
- Activity [1]: 5%
- Activity [2]: >70%
